This note sets out measurements from patent US8589175B2, “Optimization and individualization of medication selection and dosing” (Children's Hospital Medical Center, priority 2005, dated 2013).

Molecules are shown by their SMILES.

One series relates to CYP2C9. In words: dosing recommendation per CYP2C9 metabolizer subgroup as percentage of usual population dose (Equations 4-6). Also noted: species or system human. Conditions: for 1 al (effect of 1 non-functional allele) / 2 al (effect of 2 non-functional alleles) / 2 al/1 al: CYP2C9; for UM (%) dosing recommendation: CYP2C9, head prints UM; for UM (%) dosing recommendation / IM (%) dosing recommendation / PM (%) dosing recommendation: percent of usual dose; for 2 al/1 al: ratio of the two effects; for IM (%) dosing recommendation: CYP2C9 intermediate metabolizers; for PM (%) dosing recommendation: CYP2C9 poor metabolizers. From the text:
Determining “Minimal Dose Adjustment Units”
2C9 has 2 MDA units per non-functional allele.

The subject of a further series is CYP2C19. In words: dosing recommendation per CYP2C19 metabolizer subgroup as percentage of usual population dose (Equations 4-6). From the text: Assuming the goal is to maintain the same AUC for all three subpopulations of patients, the following subpopulation dosing relationships hold: DPM=DEM*(AUCEM/AUCPM) OR DPM=DEM*R if R=(AUCEM/AUCPM) (Equation 2) DIM=DEM*(AUCEM/AUCIM) OR DIM=DEM*S if S=(AUCEM/AUCIM) (Equation 3)
By substituting equations 2 and 3 into equation 1, and then rearranging the equation to solve for the percent dose adjustment needed for each subgroup relative to the population dose: DEM(%)=100/(fEM+fIM*S+fPM*R) (Equation 4) DPM(%)=R*DEM (Equation 5) DIM(%)=S*DEM (Equation 6) Equations 4, 5, and 6 show how the dosing for the more homogeneous subgroups is determined and how the dosing results are expressed as a fraction of the clinician's usual heterogeneous whole group dosages. Determining “Minimal Dose Adjustment Units”
Example: The approach in the previous section leads to individualized initial drug dose recommendations for each of the 3 subgroups (extensive, poor and intermediate metabolizers). Each subgroup represents a specific number of functional alleles for the specific DME (extensive metabolizers have 2 functional, intermediate metabolizers have 1 functional and poor metabolizers have 0 functional). The resultant dosing recommendations are expressed as percentages of the clinician's usual starting dose. It is possible to investigate the effect of increasing numbers of non-functional alleles using these new dosing recommendations. For example, if DRX % is the dosing recommendation for subgroup X expressed as a percentage of the clinician's usual starting dose then the following are true: Effect of […] 1 non-functional allele=(DREM %−DRIM %)/DREM % Effect of 2 non-functional allele=(DREM %−DRPM %)/DREM % Below is a spreadsheet (Table 3) that examines this for CYP2D6, CYP2C19 and CYP2C9. […] 2C9 has 2 MDA units per non-functional allele.

The test system of another series is CYP2D6. Conditions: human.

Consider `CC(C)n1c(/C=C/[C@@H](O)C[C@@H](O)CC(=O)O)c(-c2ccc(F)cc2)c2ccccc21` (racemic) [Lescol], for which, in the series on CYP2C9, the “1 al (effect of 1 non-functional allele)” value amounted to 0.20, the “2 al (effect of 2 non-functional alleles)” value was 0.65, the “UM (%) dosing recommendation” value is given as 100% and the “2 al/1 al” value came to 3.25. For the same compound, in the series with CYP2C9, the “IM (%) dosing recommendation” value was 80% and the “PM (%) dosing recommendation” value is reported as 35%.
`CN(C)CCC=C1c2ccccc2CCc2ccccc21` [amitryptiline]: in the series on CYP2C19 (CYP2C19), the “1 al (effect of 1 non-functional allele)” value was determined as 0.26 and the “2 al (effect of 2 non-functional alleles)” value is 0.51. Also, the “UM (%) dosing recommendation” value with CYP2C19 (CYP2C19, head prints UM, percent of usual dose) worked out at 109%. Also, in the series on CYP2C19 (CYP2C19, ratio of the two effects), the “2 al/1 al” value was 2.00. The “IM (%) dosing recommendation” value in the series on CYP2C19 (CYP2C19 intermediate metabolizers, percent of usual dose) was found to be 81%. The “PM (%) dosing recommendation” value in the series on CYP2C19 (CYP2C19 poor metabolizers, percent of usual dose) came out at 53%. In addition, in the series with CYP2D6, the “1 al (effect of 1 non-functional allele)” value was 0.17, the “2 al (effect of 2 non-functional alleles)” value was 0.34, the “2 al/1 al” value is listed as 2.00 and the “EM (%) dosing recommendation” value is 111%. In the series on CYP2D6, the “IM (%) dosing recommendation” value came to 92%, the “PM (%) dosing recommendation” value was found to be 73% and the “UM (%) dosing recommendation” value was 130%.
Consider `Cc1ccc(-c2cc(C(F)(F)F)nn2-c2ccc(S(N)(=O)=O)cc2)cc1` [Celebrex], for which, in the series with CYP2C9, the “1 al (effect of 1 non-functional allele)” value stood at 0.30, the “2 al (effect of 2 non-functional alleles)” value turned out to be 0.65, the “UM (%) dosing recommendation” value stood at 100% and the “2 al/1 al” value is recorded as 2.17. Further, in the series on CYP2C9, the “IM (%) dosing recommendation” value is 70% and the “PM (%) dosing recommendation” value amounted to 35%.
As to `CCCNC(=O)NS(=O)(=O)c1ccc(Cl)cc1` [Diabinese], in the series on CYP2C9, the “1 al (effect of 1 non-functional allele)” value turned out to be 0.58, the “2 al (effect of 2 non-functional alleles)” value was determined as 0.83, the “UM (%) dosing recommendation” value is listed as 120% and the “2 al/1 al” value was found to be 1.43. Also, in the series on CYP2C9, the “IM (%) dosing recommendation” value was found to be 60% and the “PM (%) dosing recommendation” value amounted to 20%.
For the compound `CC(=O)CC(c1ccccc1)c1c(O)c2ccccc2oc1=O` (stereo not drawn) [Coumadin], in the series with CYP2C9, the “1 al (effect of 1 non-functional allele)” value was 0.62, the “2 al (effect of 2 non-functional alleles)” value was found to be 0.85, the “UM (%) dosing recommendation” value turned out to be 130% and the “2 al/1 al” value stood at 1.38. Besides, in the series on CYP2C9, the “IM (%) dosing recommendation” value came out at 50% and the “PM (%) dosing recommendation” value is listed as 20%.
Take `CN(C)CCCC1(c2ccc(F)cc2)OCc2cc(C#N)ccc21` (stereo not drawn) [citalopram]: in the series on CYP2C19 (human), the “1 al (effect of 1 non-functional allele)” value was 0.22, the “2 al (effect of 2 non-functional alleles)” value was 0.44, the “2 al/1 al” value worked out at 1.96 and the “IM (%) dosing recommendation” value is listed as 84%. In the series on CYP2C19 (human), the “PM (%) dosing recommendation” value is reported as 61% and the “UM (%) dosing recommendation” value is reported as 108%. In addition, in the series on CYP2D6, the “1 al (effect of 1 non-functional allele)” value worked out at 0.01, the “2 al (effect of 2 non-functional alleles)” value is 0.03, the “EM (%) dosing recommendation” value came to 101% and the “IM (%) dosing recommendation” value is 100%. In the series with CYP2D6, the “PM (%) dosing recommendation” value came to 98% and the “UM (%) dosing recommendation” value worked out at 102%.
As for `CCCCc1nc(Cl)c(CO)n1Cc1ccc(-c2ccccc2-c2nn[nH]n2)cc1` [Cozaar], in the series with CYP2C9, the “1 al (effect of 1 non-functional allele)” value stood at 0.50, the “2 al (effect of 2 non-functional alleles)” value is 0.80, the “UM (%) dosing recommendation” value is reported as 100% and the “2 al/1 al” value stood at 1.60. In the series on CYP2C9, the “IM (%) dosing recommendation” value came to 50% and the “PM (%) dosing recommendation” value is 20%.
With `O=C(NCCN1CCOCC1)c1ccc(Cl)cc1` [moclobemide], in the series on CYP2C19 (human), the “1 al (effect of 1 non-functional allele)” value worked out at 0.25, the “2 al (effect of 2 non-functional alleles)” value worked out at 0.51, the “2 al/1 al” value was determined as 2.00 and the “IM (%) dosing recommendation” value was determined as 82%. Further, in the series with CYP2C19 (human), the “PM (%) dosing recommendation” value turned out to be 54% and the “UM (%) dosing recommendation” value is given as 110%. Moreover, in the series with CYP2D6, the “1 al (effect of 1 non-functional allele)” value was −0.16, the “2 al (effect of 2 non-functional alleles)” value is listed as −0.32, the “EM (%) dosing recommendation” value worked out at 92% and the “IM (%) dosing recommendation” value is 107%. Also, in the series on CYP2D6, the “PM (%) dosing recommendation” value worked out at 121% and the “UM (%) dosing recommendation” value is recorded as 77%.
`CC(CN(C)C)CN1c2ccccc2CCc2ccccc21` (stereo not drawn) [trimipramine]: in the series with CYP2C19 (human), the “1 al (effect of 1 non-functional allele)” value worked out at 0.53, the “2 al (effect of 2 non-functional alleles)” value came to 0.59, the “2 al/1 al” value was 1.12 and the “IM (%) dosing recommendation” value was 62%. In the series on CYP2C19 (human), the “PM (%) dosing recommendation” value was found to be 45% and the “UM (%) dosing recommendation” value is listed as 111%. In the series with CYP2D6, the “1 al (effect of 1 non-functional allele)” value came out at 0.31, the “2 al (effect of 2 non-functional alleles)” value is recorded as 0.72, the “2 al/1 al” value amounted to 2.35 and the “EM (%) dosing recommendation” value is 131%. Moreover, in the series with CYP2D6, the “IM (%) dosing recommendation” value came to 91%, the “PM (%) dosing recommendation” value turned out to be 37% and the “UM (%) dosing recommendation” value is given as 178%.
Turning to `CN1CCN2c3ccccc3Cc3ccccc3C2C1` (stereo not drawn) [mianserin], in the series on CYP2C19 (human), the “1 al (effect of 1 non-functional allele)” value is 0.00, the “2 al (effect of 2 non-functional alleles)” value was 0.00, the “IM (%) dosing recommendation” value worked out at 100% and the “PM (%) dosing recommendation” value was determined as 100%. In addition, the “UM (%) dosing recommendation” value with CYP2C19 (human) stood at 100%. Also, in the series on CYP2D6, the “1 al (effect of 1 non-functional allele)” value worked out at 0.21, the “2 al (effect of 2 non-functional alleles)” value worked out at 0.35, the “2 al/1 al” value is 1.67 and the “EM (%) dosing recommendation” value amounted to 114%. For the same compound, in the series with CYP2D6, the “IM (%) dosing recommendation” value is 90%, the “PM (%) dosing recommendation” value is 74% and the “UM (%) dosing recommendation” value came out at 134%.
For the compound `O=C1NC(=O)C(c2ccccc2)(c2ccccc2)N1` [Dilantin], in the series with CYP2C9, the “1 al (effect of 1 non-functional allele)” value was 0.36, the “2 al (effect of 2 non-functional alleles)” value turned out to be 0.64, the “UM (%) dosing recommendation” value stood at 110% and the “2 al/1 al” value stood at 1.75. Further, in the series on CYP2C9, the “IM (%) dosing recommendation” value is recorded as 70% and the “PM (%) dosing recommendation” value was determined as 40%.
As for `CNCCCC12CCC(c3ccccc31)c1ccccc12` [maprotiline], in the series on CYP2C19 (human), the “1 al (effect of 1 non-functional allele)” value amounted to 0.00, the “2 al (effect of 2 non-functional alleles)” value turned out to be 0.00, the “IM (%) dosing recommendation” value is 100% and the “PM (%) dosing recommendation” value came to 100%. In addition, the “UM (%) dosing recommendation” value in the series with CYP2C19 (human) is 100%. Moreover, in the series with CYP2D6, the “1 al (effect of 1 non-functional allele)” value is 0.35, the “2 al (effect of 2 non-functional alleles)” value was found to be 0.72, the “2 al/1 al” value amounted to 2.02 and the “EM (%) dosing recommendation” value came out at 127%. In the series with CYP2D6, the “IM (%) dosing recommendation” value was determined as 82%, the “PM (%) dosing recommendation” value came out at 36% and the “UM (%) dosing recommendation” value stood at 173%.
`CCC1=C(C)CN(C(=O)NCCc2ccc(S(=O)(=O)NC(=O)N[C@H]3CC[C@H](C)CC3)cc2)C1=O` [Amaryl]: in the series with CYP2C9, the “1 al (effect of 1 non-functional allele)” value is reported as 0.42, the “2 al (effect of 2 non-functional alleles)” value is on record as 0.83, the “UM (%) dosing recommendation” value was determined as 120% and the “2 al/1 al” value came out at 2.00. In the series on CYP2C9, the “IM (%) dosing recommendation” value was determined as 70% and the “PM (%) dosing recommendation” value is reported as 20%.
For `CN1CCN(C2=Nc3cc(Cl)ccc3Nc3ccccc32)CC1` [clozapine], in the series with CYP2C19 (human), the “1 al (effect of 1 non-functional allele)” value came to 0.13, the “2 al (effect of 2 non-functional alleles)” value came to 0.25, the “2 al/1 al” value is 2.00 and the “IM (%) dosing recommendation” value was 91%. In the series on CYP2C19 (human), the “PM (%) dosing recommendation” value was found to be 78% and the “UM (%) dosing recommendation” value is on record as 104%. In addition, in the series with CYP2D6, the “1 al (effect of 1 non-functional allele)” value is reported as −0.11, the “2 al (effect of 2 non-functional alleles)” value is given as −0.20, the “EM (%) dosing recommendation” value was 94% and the “IM (%) dosing recommendation” value amounted to 104%. In the series with CYP2D6, the “PM (%) dosing recommendation” value worked out at 113% and the “UM (%) dosing recommendation” value is reported as 84%.
For `CN(C)CCC=C1c2ccccc2COc2ccccc21` [doxepin], in the series with CYP2C19 (human), the “1 al (effect of 1 non-functional allele)” value was determined as 0.13, the “2 al (effect of 2 non-functional alleles)” value was found to be 0.54, the “IM (%) dosing recommendation” value was 91% and the “PM (%) dosing recommendation” value was found to be 46%. For the same compound, in the series on CYP2D6, the “1 al (effect of 1 non-functional allele)” value is 0.35, the “2 al (effect of 2 non-functional alleles)” value was 0.72, the “EM (%) dosing recommendation” value is reported as 127% and the “IM (%) dosing recommendation” value was 82%. Further, in the series with CYP2D6, the “PM (%) dosing recommendation” value stood at 36% and the “UM (%) dosing recommendation” value was 173%.
